This is an account of results in patent publication US10780090B2, “Heteroaryl compounds useful as inhibitors of SUMO activating enzyme” (Millennium Pharmaceuticals, Inc., priority 2014, dated 2020).

The target of this test is recombinant human SAE enzyme (Homo sapiens (Human), UniProt Q9UBT2). Description: SAE HTRF enzyme assay. In kind it is biochemical. The conditions noted are these: for inhibition at 0.111 µM: read-out: Percent Inhibition. The method, boiled down: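 HTRF read-out using Eu-cryptate anti-Flag and allophycocyanin anti-GST antibodies, added with EDTA stop buffer and read after 2 h at 24 °C. The preceding reaction ran 105 min at 24 °C: 0.11 nM recombinant SAE, 0.5 μM ATP, Sumo-Flag, Ubc9-GST, pH 7.5. Values given as single-concentration inhibition or IC50.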
Chain of recombinant human SAE enzyme (Q9UBT2 whole entry): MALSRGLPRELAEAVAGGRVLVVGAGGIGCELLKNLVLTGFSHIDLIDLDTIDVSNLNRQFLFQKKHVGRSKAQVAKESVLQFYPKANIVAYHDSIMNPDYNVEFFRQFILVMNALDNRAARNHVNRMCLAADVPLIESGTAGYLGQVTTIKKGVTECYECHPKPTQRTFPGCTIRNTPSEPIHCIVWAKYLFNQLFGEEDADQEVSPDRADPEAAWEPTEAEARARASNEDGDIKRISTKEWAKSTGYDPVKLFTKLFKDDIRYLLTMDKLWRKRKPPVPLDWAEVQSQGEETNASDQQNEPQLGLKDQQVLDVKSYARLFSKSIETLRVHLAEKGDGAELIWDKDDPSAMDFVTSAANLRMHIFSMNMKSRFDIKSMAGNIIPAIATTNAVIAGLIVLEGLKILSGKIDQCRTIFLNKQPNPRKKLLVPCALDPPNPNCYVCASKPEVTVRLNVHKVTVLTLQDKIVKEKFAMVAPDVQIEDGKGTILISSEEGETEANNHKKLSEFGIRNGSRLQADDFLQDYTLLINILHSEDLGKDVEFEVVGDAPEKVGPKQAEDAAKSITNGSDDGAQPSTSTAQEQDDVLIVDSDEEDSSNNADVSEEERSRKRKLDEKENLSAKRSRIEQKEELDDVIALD
Chain of recombinant human SAE enzyme (Q9UBE0 whole entry partner): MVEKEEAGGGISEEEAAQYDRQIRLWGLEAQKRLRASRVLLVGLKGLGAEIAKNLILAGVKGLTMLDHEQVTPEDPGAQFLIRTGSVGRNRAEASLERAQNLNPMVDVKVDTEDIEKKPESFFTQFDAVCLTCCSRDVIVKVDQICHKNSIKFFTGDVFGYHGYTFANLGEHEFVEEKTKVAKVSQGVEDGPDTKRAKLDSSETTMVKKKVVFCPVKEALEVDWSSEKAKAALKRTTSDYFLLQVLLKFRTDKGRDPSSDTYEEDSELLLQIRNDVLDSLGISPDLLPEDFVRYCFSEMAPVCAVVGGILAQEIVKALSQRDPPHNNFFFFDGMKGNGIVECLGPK

The mark [1] stands for this setting: SAE inhibition at compound concentration 0.111 μM.
Setting [2] is: SAE inhibition, class symbols, legend in nM.

Each structure is given as a SMILES string. Where a name gives a salt, the structure may show the parent alone. Read-outs that look alike come from different tables or passages of the source.

`CC(c1cccc(Cl)c1)c1csc(C(=O)c2cncnc2N[C@@H]2C[C@H](COS(N)(=O)=O)[C@@H](O)C2)c1` (single isomer, unassigned) [I-117a, [(1R,2S,4R)-4-{[5-({4-[(1S)-1-(3-chlorophenyl)ethyl]-2-thienyl}carbonyl)pyrimidin-4-yl]amino}-2-hydroxycyclopentyl]methyl sulfamate or [(1R,2S,4R)-4-{[5-({4-[(1R)-1-(3-chlorophenyl)ethyl]-2-thienyl}carbonyl)pyrimidin-4-yl]amino}-2-hydroxycyclopentyl]methyl sulfamate]: the “Percent Inhibition” value (Concentration 0.111 μM) is listed as 73. The IC50 (class symbols A/B/C) was 10 to 100 nM.

In the case of `C[C@@H](c1cccc(Cl)c1)c1csc(C(=O)c2cncnc2N[C@@H]2C[C@H](COS(N)(=O)=O)[C@@H](O)C2)c1` (mixture of isomers) [I-117, [(1R,2S,4R)-4-{[5-({4-[(1S)-1-(3-chlorophenyl)ethyl]-2-thienyl}carbonyl)pyrimidin-4-yl]amino}-2-hydroxycyclopentyl]methyl sulfamate and [(1R,2S,4R)-4-{[5-({4-[(1R)-1-(3-chlorophenyl)ethyl]-2-thienyl}carbonyl)pyrimidin-4-yl]amino}-2-hydroxycyclopentyl]methyl sulfamate], the “Percent Inhibition” value (Concentration 0.111 μM) is 93. The concentration for half-maximal inhibition (IC50) (class symbols A/B/C) is less than 10 nM.

For `NS(=O)(=O)OCC1CC(Nc2ncncc2C(=O)c2cc(C(O)c3cccc(Cl)c3)c(CO)s2)CC1O` (mixture of isomers) [I-13, [(1R,2S,4R)-4-{[5-({4-[(R)-(3-chlorophenyl)(hydroxy)methyl]-5-(hydroxymethyl)-2-thienyl}carbonyl)pyrimidin-4-yl]amino}-2-hydroxycyclopentyl]methyl sulfamate and [(1R,2S,4R)-4-{[5-({4-[(S)-(3-chlorophenyl)(hydroxy)methyl]-5-(hydroxymethyl)-2-thienyl}carbonyl)pyrimidin-4-yl]amino}-2-hydroxycyclopentyl]methyl sulfamate], under “Concentration 0.111 μM”, the “Percent Inhibition” value amounted to 100. Further, under “class symbols A/B/C”, the IC50 was less than 10 nM.

`Cc1sc(C(=O)c2cncnc2N[C@@H]2C[C@H](COS(N)(=O)=O)[C@@H](O)C2)cc1C1=NCCc2ccc(Cl)cc21` [I-360, ((1R,2S,4R)-4-{(5-(4-(7-chloro-3,4-dihydroisoquinolin-1-yl)-5-methylthiophene-2-carbonyl)pyrimidin-4-yl)amino)-2-hydroxycyclopentyl)methyl sulfamate]: the inhibition at 0.111 µM under setting [1] is 95%. Moreover, the IC50 under setting [2] is less than 10 nM.

As for `CN[C@@H](c1cccc(Cl)c1)c1cc(C(=O)c2cncnc2N[C@@H]2C[C@H](COS(N)(=O)=O)[C@@H](O)C2)sc1Cl.CN[C@H](c1cccc(Cl)c1)c1cc(C(=O)c2cncnc2N[C@@H]2C[C@H](COS(N)(=O)=O)[C@@H](O)C2)sc1Cl` (mixture of isomers) [I-95, [(1R,2S,4R)-4-{[5-({5-Chloro-4-[(S)-(3-chlorophenyl)(methylamino)methyl]-2-thienyl}carbonyl)pyrimidin-4-yl]amino}-2-hydroxycyclopentyl]methyl sulfamate and [(1R,2S,4R)-4 {[5-({5-Chloro-4-[(R)-(3-chlorophenyl)(methylamino)methyl]-2-thienyl}carbonyl)pyrimidin-4-yl]amino}-2-hydroxycyclopentyl]methyl sulfamate], the “Percent Inhibition” value (Concentration 0.111 μM) came out at 97. In addition, under “class symbols A/B/C”, the IC50 was less than 10 nM.

Take `NS(=O)(=O)OCC1CC(Nc2ncncc2C(=O)c2cc(C(O)c3cccc(Cl)n3)cs2)CC1O` (mixture of isomers) [I-29, [(1R,2S,4R)-4-({5-[{4-[(S)-(6-Chloropyridin-2-yl)(hydroxy)methyl]-2-thienyl}carbonyl)pyrimidin-4-yl]amino}-2-hydroxycyclopentyl]methyl sulfamate and [(1R,2S,4R)-4-{[5-({4-[(R)-(6-Chloropyridin-2-yl)(hydroxy)methyl]-2-thienyl}carbonyl)pyrimidin-4-yl]amino}-2-hydroxycyclopentyl]methyl sulfamate]: the “Percent Inhibition” value (Concentration 0.111 μM) is 100. Besides, the IC50 (class symbols A/B/C) is less than 10 nM.

As to `C[C@](N)(c1cccc(Cl)c1)c1csc(C(=O)c2cncnc2N[C@@H]2C[C@H](COS(N)(=O)=O)[C@@H](O)C2)c1` (single isomer, unassigned) [I-12a, [(1R,2S,4R)-4-{[5-({4-[(1S)-1-amino-1-(3-chlorophenyl)ethyl]-2-thienyl}carbonyl)pyrimidin-4-yl]amino}-2-hydroxycyclopentyl]methyl sulfamate or [(1R,2S,4R)-4-{[5-({4-[(1R)-1-amino-1-(3-chlorophenyl)ethyl]-2-thienyl}carbonyl)pyrimidin-4-yl]amino}-2-hydroxycyclopentyl]methyl sulfamate], the “Percent Inhibition” value (Concentration 0.111 μM) worked out at 84. Besides, the IC50 (class symbols A/B/C) fell in the range of 10 to 100 nM.

For the compound `NS(=O)(=O)OC[C@H]1C[C@@H](Nc2ncncc2C(=O)c2cc([C@@H]3NCCc4ccc(Cl)cc43)c(Cl)o2)C[C@@H]1O` (single isomer, unassigned) [I-299a, {(1R,2S,4R)-4-[(5-{5-chloro-4-[(1R)-7-chloro-1,2,3,4-tetrahydroisoquinolin-1-yl]-2-furoyl}pyrimidin-4-yl)amino]-2-hydroxycyclopentyl}methyl sulfamate or {(1R,2S,4R)-4-[(5-{5-chloro-4-[(1S)-7-chloro-1,2,3,4-tetrahydroisoquinolin-1-yl]-2-furoyl}pyrimidin-4-yl)amino]-2-hydroxycyclopentyl}methyl sulfamate], the “Percent Inhibition” value under setting [1] is 101%. Under setting [2], the 50% inhibitory concentration (IC50) was less than 10 nM.

`NS(=O)(=O)OC[C@H]1C[C@@H](Nc2ncncc2C(=O)c2cc(Sc3cccc(Cl)c3)c(Cl)s2)C[C@@H]1O` [I-175, [(1R,2S,4R)-4-{[5-({5-chloro-4-[(3-chlorophenyl)sulfanyl]-2-thienyl}carbonyl)pyrimidin-4-yl]amino}-2-hydroxycyclopentyl]methyl sulfamate]: the inhibition at 0.111 µM (Concentration 0.111 μM) was found to be 90%. The IC50 (class symbols A/B/C) is 10 to 100 nM.

In the case of `NS(=O)(=O)OC[C@H]1C[C@@H](Nc2ncncc2C(=O)c2cc(CC3=CCCCC3)cs2)C[C@@H]1O` [I-140, {(1R,2S,4R)-4-[(5-{[4-(Cyclohex-1-en-1-ylmethyl)-2-thienyl]carbonyl}pyrimidin-4-yl)amino]-2-hydroxycyclopentyl}methyl sulfamate], the inhibition at 0.111 µM (Concentration 0.111 μM) turned out to be 93%. Further, the IC50 (class symbols A/B/C) was less than 10 nM.

In the case of `Cc1oc(C(=O)c2cncnc2N[C@@H]2C[C@H](COS(N)(=O)=O)[C@@H](O)C2)cc1C1OCCc2ccccc21` (single isomer, unassigned) [I-272b, {(1R,2S,4R)-4-[(5-{4-[(1R)-3,4-dihydro-1H-isochromen-1-yl]-5-methyl-2-furoyl}pyrimidin-4-yl)amino]-2-hydroxycyclopentyl}methyl sulfamate or {(1R,2S,4R)-4-[(5-{4-[(1S)-3,4-dihydro-1H-isochromen-1-yl]-5-methyl-2-furoyl}pyrimidin-4-yl)amino]-2-hydroxycyclopentyl}methyl sulfamate], the “Percent Inhibition” value (Concentration 0.111 μM) turned out to be 97. Moreover, for the setting “class symbols A/B/C”, the IC50 was less than 10 nM.

On to `C=C(c1cccc(Cl)c1)c1cc(C(=O)c2cncnc2N[C@@H]2C[C@H](COS(N)(=O)=O)[C@@H](O)C2)sc1C` [I-100, [(1R,2S,4R)-4-{[5-({4-[1-(3-Chlorophenyl)vinyl]-5-methyl-2-thienyl}carbonyl)pyrimidin-4-yl]amino}-2-hydroxycyclopentyl]methyl sulfamate], for which, under “Concentration 0.111 μM”, the inhibition at 0.111 µM is 97%. Also, the IC50 (class symbols A/B/C) was less than 10 nM.

Turning to `Cc1sc(C(=O)c2cncnc2N[C@@H]2C[C@H](COS(N)(=O)=O)[C@@H](OC(=O)[C@H](C)N)C2)cc1[C@@H]1OCCc2ccc(Cl)cc21` [I-362, [(1S,2R,4R)-4-[5-[4-[(1R)-7-chloroisochroman-1-yl]-5-methyl-thiophene-2-carbonyl]pyrimidin-4-yl]amino]-2-(sulfamoyloxymethyl)cyclopentyl] (2S)-2-aminopropanoate; hydrochloride], the “Percent Inhibition” value under setting [1] is listed as 91%. In addition, the IC50 under setting [2] was in the range of 10 to 100 nM.

For `NS(=O)(=O)OC[C@H]1C[C@@H](Nc2ncncc2C(=O)c2cc(CO)c(Cl)s2)C[C@@H]1O` [I-211, {(1R,2S,4R)-4-[(5-{[5-Chloro-4-(hydroxymethyl)-2-thienyl]carbonyl}pyrimidin-4-yl)amino]-2-hydroxycyclopentyl}methyl sulfamate], the inhibition at 0.111 µM (Concentration 0.111 μM) worked out at 39%. Besides, the IC50 (class symbols A/B/C) was in the range of 100 to 1000 nM.

For the compound `CN(Cc1csc(C(=O)c2cncnc2N[C@@H]2C[C@H](COS(N)(=O)=O)[C@@H](O)C2)c1)c1cccc(Cl)c1` [I-138, [(1R,2S,4R)-4-({5-[(4-{[(3-Chlorophenyl)(methyl)amino]methyl}-2-thienyl)carbonyl]pyrimidin-4-yl}amino)-2-hydroxycyclopentyl]methyl sulfamate], the inhibition at 0.111 µM (Concentration 0.111 μM) is 96%. Moreover, the IC50 (class symbols A/B/C) was less than 10 nM.

`NS(=O)(=O)OC[C@H]1C[C@@H](Nc2ncncc2C(=O)c2cc(Cc3ccc(Cl)o3)cs2)C[C@@H]1O` [I-66, [(1R,2S,4R)-4-{[5-({4-[(5-chloro-2-furyl)methyl]-2-thienyl}carbonyl)pyrimidin-4-yl]amino}-2-hydroxycyclopentyl]methyl sulfamate]: the inhibition at 0.111 µM (Concentration 0.111 μM) is 98%. The IC50 (class symbols A/B/C) is less than 10 nM.

For the compound `NS(=O)(=O)OC[C@H]1C[C@@H](Nc2ncncc2C(=O)c2cc([C@H](O)c3ccccc3)c(Cl)s2)C[C@@H]1O` (mixture of isomers) [I-56, [(1R,2S,4R)-4-{[5-({5-chloro-4-[(R)-hydroxy(phenyl)methyl]-2-thienyl}carbonyl)pyrimidin-4-yl]amino}-2-hydroxycyclopentyl]methyl sulfamate and [(1R,2S,4R)-4-{[5-({5-chloro-4-[(S)-hydroxy(phenyl)methyl]-2-thienyl}carbonyl)pyrimidin-4-yl]amino}-2-hydroxycyclopentyl]methyl sulfamate], the “Percent Inhibition” value (Concentration 0.111 μM) was determined as 98. Further, the IC50 (class symbols A/B/C) is less than 10 nM.

Broadly, the IC50 is the concentration that gives 50% inhibition. One may read the inhibition as the relative decrease from the control value, in per cent.
